Test system: varicose veins of lower extremities
Experiment: Case report: patient with varicose veins of lower extremities, Dorner replaced with EPADEL S
Format: in vivo, human
Conditions: person
Protocol: A person diagnosed with hypertension, diabetes, hyperlipidemia, and varicose veins of lower extremities (serious conditions with multiple dilatations, winding varices, and skin pigmentation in both legs) was administered with Dorner (trade name; manufactured by Toray Industries, Inc.; generic name, beraprost sodium; a therapeutic agent for chronic artery occlusion) in expectation of therapeutic effect on varicose veins of lower extremities together with Adalat L (trade name; manufactured by Bayer; generic name, nifedipine; coronary vasodilator), Basen (trade name; manufactured by Takeda Pharmaceutical Company Limited; generic name, voglibose; α-glucosidase inhibitor), Lochol (trade name; manufactured by Ciba Geigy Japan Ltd.; generic name, fluvastatin sodium; HMG-CoA reductase inhibitor), and NU-LOTAN (trade name; manufactured by Banyu Pharmaceutical Co., Ltd.; generic name, losartan potassium; angiotensin II receptor antagonist). […] Accordingly, Dorner was replaced with EPADEL S (trade name; manufactured by Mochida Pharmaceutical Co., Ltd.; generic name, ethyl eicosapentate (EPA-E)) at a dose of 600 mg×3 packets per day. […] The skin pigmentation also disappeared. […] No therapeutic method was changed except the change of the drug from Dorner to EPADEL S.

[1] = 600 mg×3 packets per day, after about 1 month, Dorner replaced, other medication unchanged

| SMILES | adverse event presumably caused by the drug (600 mg×3 packets per day, about 1 month) | skin pigmentation (600 mg×3 packets per day, after about 1 month) | varicose veins in the left leg [1] | varicose veins in the right leg [1] | improvement in the varicose veins of lower extremities (serious conditions in both legs, Dorner given together with Adalat L, Basen, Lochol and NU-LOTAN, after the medication) |
| --- | --- | --- | --- | --- | --- |
| CC/C=C\C/C=C\C/C=C\C/C=C\C/C=C\CCCC(=O)OCC [EPADEL S, ethyl eicosapentate] | No adverse event | disappeared | substantial improvement | substantial disappearance | – |
| CC#CCC(C)[C@H](O)/C=C/[C@@H]1[C@H]2c3cccc(CCCC(=O)O)c3O[C@H]2C[C@H]1O (mixture of isomers) [Dorner, beraprost sodium] | – | – | – | – | No improvement |
